One assay concerns the target T1, human recombinant HDAC1 (Homo sapiens, UniProt Q13547).
T1 construct: purchased Enzo Life Science BML-SE456
The assay can be described thus: HDAC1 enzyme activity inhibition assay (HDAC Fluorimetric Drug Discovery Kit). Type of assay: biochemical. To be noted: 0.3 μg enzyme, 10 μM substrate, 30° C., 60 minutes. The procedure, abridged:
(§1)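 Recombinant enzyme (0.3 μg) was incubated with 5-fold serially diluted compound and 10 μM Fluor de Lys-SIRT1 substrate for 60 min at 30° C. Developer II was then added for 30 min, fluorescence read at Ex 360/Em 460, and IC50 values were calculated.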

Another assay addresses T2, human recombinant HDAC6 (Homo sapiens, UniProt Q9UBN7).
T2 construct: purchased Calbiochem 382180
T2 sequence (Q9UBN7 1-1215): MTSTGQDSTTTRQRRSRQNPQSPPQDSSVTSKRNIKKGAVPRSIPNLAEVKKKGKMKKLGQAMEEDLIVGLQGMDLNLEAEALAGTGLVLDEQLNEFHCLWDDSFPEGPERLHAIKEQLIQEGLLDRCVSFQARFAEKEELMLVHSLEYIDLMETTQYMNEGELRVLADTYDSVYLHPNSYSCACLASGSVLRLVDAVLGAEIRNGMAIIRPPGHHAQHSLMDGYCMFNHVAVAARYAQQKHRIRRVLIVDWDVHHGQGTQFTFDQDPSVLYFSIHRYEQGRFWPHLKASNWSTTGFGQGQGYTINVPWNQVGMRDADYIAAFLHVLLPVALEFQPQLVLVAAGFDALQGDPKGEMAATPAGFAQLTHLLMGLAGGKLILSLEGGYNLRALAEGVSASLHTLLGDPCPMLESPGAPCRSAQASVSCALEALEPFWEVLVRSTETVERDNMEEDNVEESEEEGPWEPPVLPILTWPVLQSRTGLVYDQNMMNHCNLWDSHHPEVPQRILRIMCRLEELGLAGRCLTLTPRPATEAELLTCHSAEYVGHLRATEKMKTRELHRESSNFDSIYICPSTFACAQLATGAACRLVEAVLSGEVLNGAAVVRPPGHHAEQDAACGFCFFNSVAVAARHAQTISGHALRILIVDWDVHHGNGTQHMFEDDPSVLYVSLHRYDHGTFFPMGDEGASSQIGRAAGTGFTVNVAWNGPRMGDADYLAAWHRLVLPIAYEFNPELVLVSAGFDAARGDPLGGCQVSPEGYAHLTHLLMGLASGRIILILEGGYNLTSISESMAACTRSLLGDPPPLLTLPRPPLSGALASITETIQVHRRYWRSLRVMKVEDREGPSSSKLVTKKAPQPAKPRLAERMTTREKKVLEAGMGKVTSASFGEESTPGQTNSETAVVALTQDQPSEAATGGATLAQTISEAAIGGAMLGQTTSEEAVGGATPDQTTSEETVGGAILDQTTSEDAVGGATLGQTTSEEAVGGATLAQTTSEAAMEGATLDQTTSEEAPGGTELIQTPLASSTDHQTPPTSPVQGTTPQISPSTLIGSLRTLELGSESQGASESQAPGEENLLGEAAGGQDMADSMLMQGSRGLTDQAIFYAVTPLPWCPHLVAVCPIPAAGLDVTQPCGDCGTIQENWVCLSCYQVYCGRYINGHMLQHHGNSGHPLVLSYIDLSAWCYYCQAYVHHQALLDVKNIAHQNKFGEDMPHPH
Briefly: HDAC6 enzyme activity inhibition assay (HDAC Fluorimetric Drug Discovery Kit). Type of assay: biochemical. Conditions: for HDAC6 selectivity (fold): HDAC1 vs HDAC6; for IC50: same protocol as the HDAC1 enzyme activity test. The method, boiled down:
as §1

As usually defined, the IC50 is the concentration needed to halve the response being measured.

T1 sequence (Q13547 whole entry): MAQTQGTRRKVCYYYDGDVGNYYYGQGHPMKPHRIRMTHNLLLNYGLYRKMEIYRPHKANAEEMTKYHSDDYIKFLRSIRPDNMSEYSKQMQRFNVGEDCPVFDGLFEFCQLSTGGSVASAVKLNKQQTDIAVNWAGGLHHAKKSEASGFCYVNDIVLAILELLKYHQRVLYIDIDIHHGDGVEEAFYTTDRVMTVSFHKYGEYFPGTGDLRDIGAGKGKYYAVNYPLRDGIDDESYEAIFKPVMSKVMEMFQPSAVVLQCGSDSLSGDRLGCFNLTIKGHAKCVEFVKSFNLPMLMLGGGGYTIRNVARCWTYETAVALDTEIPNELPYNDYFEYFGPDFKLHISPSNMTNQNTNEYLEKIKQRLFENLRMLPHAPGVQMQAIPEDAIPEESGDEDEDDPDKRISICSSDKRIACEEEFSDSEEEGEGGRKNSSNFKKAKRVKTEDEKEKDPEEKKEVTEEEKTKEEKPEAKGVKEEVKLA

Consider `Cc1cccc(N(Cc2ccc(-c3nnc(C(F)F)o3)cn2)S(=O)(=O)C2CCN([C@H]3CC[C@@H](C(F)(F)F)CC3)CC2)c1` [Compound 11691, N-((5-(5-(difluoromethyl)-1,3,4-oxadiazol-2-yl)pyridin-2-yl)methyl)-N-(m-tolyl)-1-((1s,4s)-4-(trifluoromethyl)cyclohexyl)piperidine-4-sulfonamide], for which the IC50 on human recombinant HDAC1 came to 34.2 µM; on human recombinant HDAC6 it was 0.0805 µM. In addition, the “HDAC6 selectivity (fold)” value at human recombinant HDAC6 is recorded as 425 fold.
Regarding `CCS(=O)(=O)N(Cc1ccc(-c2nnc(C(F)(F)F)o2)cn1)c1ccc(F)c(Cl)c1` [Compound 11429, N-(3-chloro-4-fluorophenyl)-N-((5-(5-(trifluoromethyl)-1,3,4-oxadiazol-2-yl)pyridin-2-yl)methyl)ethanesulfonamide], at human recombinant HDAC1, the IC50 is 18.7 µM. Further, at human recombinant HDAC6, the “HDAC6 selectivity (fold)” value was 288 fold and the half-inhibitory concentration (IC50) amounted to 0.065 µM.
Consider `CS(=O)(=O)N(Cc1ccc(-c2nnc(C(F)(F)F)o2)cc1)c1cccnc1` [Compound 11088, N-(pyridin-3-yl)-N-(4-(5-(trifluoromethyl)-1,3,4-oxadiazol-2-yl)benzyl)methanesulfonamide], for which the IC50 was determined as 51.4 µM at human recombinant HDAC1 and 0.127 µM on human recombinant HDAC6. Moreover, the “HDAC6 selectivity (fold)” value at human recombinant HDAC6 was found to be 404 fold.
Regarding `NC(=O)[C@@H]1CCCN1CCS(=O)(=O)N(Cc1ccc(-c2nnc(C(F)F)o2)cn1)c1ccccc1` [Compound 11847, (S)-1-(2-(N-((5-(5-(difluoromethyl)-1,3,4-oxadiazol-2-yl)pyridin-2-yl)methyl)-N-phenylsulfamoyl)ethyl)pyrrolidine-2-carboxamide], the values for the concentration for half-maximal inhibition (IC50) on human recombinant HDAC1 and on human recombinant HDAC6 were 24.5 µM and 0.0551 µM, respectively. Also, the “HDAC6 selectivity (fold)” value at human recombinant HDAC6 worked out at 445 fold.
Regarding `Cc1cccc(N(Cc2ccc(-c3nnc(C(F)F)o3)cn2)S(=O)(=O)C2CCN([C@H]3CC[C@H](F)CC3)CC2)c1` [Compound 11688, N-((5-(5-(difluoromethyl)-1,3,4-oxadiazol-2-yl)pyridin-2-yl)methyl)-1-((1r,4r)-4-fluorocyclohexyl)-N-(m-tolyl)piperidine-4-sulfonamide], the half-maximal inhibitory concentration (IC50) on human recombinant HDAC1 came out at 20.2 µM. Besides, on human recombinant HDAC6, the “HDAC6 selectivity (fold)” value is given as 423 fold and the IC50 amounted to 0.0477 µM.
In the case of `Cc1cccc(N(Cc2ccc(-c3nnc(C(F)F)o3)cn2)S(=O)(=O)C2CCN([C@H]3CC[C@H](C(F)(F)F)CC3)CC2)c1` [Compound 11690, N-((5-(5-(difluoromethyl)-1,3,4-oxadiazol-2-yl)pyridin-2-yl)methyl)-N-(m-tolyl)-1-((1r,4r)-4-(trifluoromethyl)cyclohexyl)piperidine-4-sulfonamide], the IC50 at human recombinant HDAC1 is 54.8 µM; at human recombinant HDAC6, 0.225 µM. For the same molecule, the “HDAC6 selectivity (fold)” value at human recombinant HDAC6 is listed as 244 fold.
For the molecule `O=C(c1cncn1CCS(=O)(=O)N(Cc1ccc(-c2nnc(C(F)F)o2)cc1)c1ccccc1)C(F)F` [Compound 11678, 2-(5-(2,2-difluoroacetyl)-1H-imidazol-1-yl)-N-(4-(5-(difluoromethyl)-1,3,4-oxadiazol-2-yl)benzyl)-N-phenylethane-1-sulfonamide], the concentration for half-maximal inhibition (IC50) on human recombinant HDAC1 worked out at 54.6 µM. Besides, on human recombinant HDAC6, the “HDAC6 selectivity (fold)” value is 975 fold and the half-inhibitory concentration (IC50) came out at 0.056 µM.
In the case of `CS(=O)(=O)N(Cc1ccc(-c2nnc(C(F)(F)F)o2)nc1)c1ccccc1` [Compound 11173, N-phenyl-N-((6-(5-(trifluoromethyl)-1,3,4-oxadiazol-2-yl)pyridin-3-yl)methyl)methanesulfonamide], the 50% inhibitory concentration (IC50) at human recombinant HDAC1 came to 28.6 µM; at human recombinant HDAC6 it was 0.661 µM. Moreover, the “HDAC6 selectivity (fold)” value on human recombinant HDAC6 is 43 fold.
Turning to `O=S(=O)(C1CCOCC1)N(Cc1ccc(-c2nnc(C(F)(F)F)o2)cn1)c1ccccc1` [Compound 11431, N-phenyl-N-((5-(5-(trifluoromethyl)-1,3,4-oxadiazol-2-yl)pyridin-2-yl)methyl)tetrahydro-2H-pyran-4-sulfonamide], the IC50 at human recombinant HDAC1 is 28.1 µM. In addition, on human recombinant HDAC6, the “HDAC6 selectivity (fold)” value is given as 453 fold and the IC50 came to 0.062 µM.
`O=S(=O)(C1CCN([C@H]2CC[C@@H](F)CC2)CC1)N(Cc1ccc(-c2nnc(C(F)F)o2)cn1)c1cccc(Cl)c1` [Compound 11728, N-(3-chlorophenyl)-N-((5-(5-(difluoromethyl)-1,3,4-oxadiazol-2-yl)pyridin-2-yl)methyl)-1-((1s,4s)-4-fluorocyclohexyl)piperidine-4-sulfonamide]: the IC50 on human recombinant HDAC1 amounted to 21.6 µM. Besides, at human recombinant HDAC6, the “HDAC6 selectivity (fold)” value is recorded as 453 fold and the 50% inhibitory concentration (IC50) was determined as 0.0476 µM.
On to `Cc1cccc(N(Cc2ccc(-c3nnc(C(F)F)o3)cn2)S(=O)(=O)C2CCN(C3CCOCC3)CC2)c1` [Compound 11692, N-((5-(5-(difluoromethyl)-1,3,4-oxadiazol-2-yl)pyridin-2-yl)methyl)-1-(tetrahydro-2H-pyran-4-yl)-N-(m-tolyl)piperidine-4-sulfonamide], for which, at human recombinant HDAC1, the half-inhibitory concentration (IC50) is 71.7 µM. At human recombinant HDAC6, the “HDAC6 selectivity (fold)” value came to 1309 fold and the half-maximal inhibitory concentration (IC50) was determined as 0.0547 µM.
Regarding `CCS(=O)(=O)N(Cc1ccc(-c2nnc(C(F)F)o2)cn1)c1cc(Cl)cc(Cl)c1` [Compound 11506, N-(3,5-dichlorophenyl)-N-((5-(5-(difluoromethyl)-1,3,4-oxadiazol-2-yl)pyridin-2-yl)methyl)ethanesulfonamide], the IC50 at human recombinant HDAC1 is 59.7 µM. For the same molecule, on human recombinant HDAC6, the “HDAC6 selectivity (fold)” value was 4977 fold and the IC50 came to 0.012 µM.
Take `CC(=O)N1CC(N2CCC(S(=O)(=O)N(Cc3ccc(-c4nnc(C(F)F)o4)cn3)c3ccc(F)c(Cl)c3)CC2)C1` [Compound 11502, 1-(1-acetylazetidin-3-yl)-N-(3-chloro-4-fluorophenyl)-N-((5-(5-(difluoromethyl)-1,3,4-oxadiazol-2-yl)pyridin-2-yl)methyl)piperidine-4-sulfonamide]: the figures for the IC50 on human recombinant HDAC1 and at human recombinant HDAC6 were 78.1 µM and 0.014 µM, respectively. Also, the “HDAC6 selectivity (fold)” value on human recombinant HDAC6 was 5579 fold.
Consider `CCS(=O)(=O)N(Cc1ccc(-c2nnc(C(F)F)o2)cn1)c1ccc(Cl)c(C)c1` [Compound 11504, N-(4-chloro-3-methylphenyl)-N-((5-(5-(difluoromethyl)-1,3,4-oxadiazol-2-yl)pyridin-2-yl)methyl)ethanesulfonamide], for which the half-inhibitory concentration (IC50) on human recombinant HDAC1 turned out to be 86.2 µM. Moreover, on human recombinant HDAC6, the “HDAC6 selectivity (fold)” value is 4790 fold and the half-maximal inhibitory concentration (IC50) came out at 0.018 µM.
On to `CS(=O)(=O)N(Cc1ncc(-c2nnc(C(F)(F)F)o2)cn1)c1ccccc1` [Compound 11565, N-phenyl-N-((5-(5-(trifluoromethyl)-1,3,4-oxadiazol-2-yl)pyrimidin-2-yl)methyl)methanesulfonamide], for which the IC50 at human recombinant HDAC1 worked out at 46.5 µM; at human recombinant HDAC6, 0.149 µM. The “HDAC6 selectivity (fold)” value at human recombinant HDAC6 worked out at 312 fold.
On to `CS(=O)(=O)N(Cc1ccc(-c2nnc(C(F)(F)F)o2)cn1)c1ccc(F)c(Cl)c1` [Compound 11432, N-(3-chloro-4-fluorophenyl)-N-((5-(5-(trifluoromethyl)-1,3,4-oxadiazol-2-yl)pyridin-2-yl)methyl)methanesulfonamide], for which the 50% inhibitory concentration (IC50) on human recombinant HDAC1 was 16.5 µM. In addition, on human recombinant HDAC6, the “HDAC6 selectivity (fold)” value turned out to be 271 fold and the half-inhibitory concentration (IC50) worked out at 0.061 µM.
Turning to `CCS(=O)(=O)N(Cc1ccc(-c2nnc(C(F)F)o2)cn1)c1cc(F)cc(F)c1` [Compound 11463, N-((5-(5-(difluoromethyl)-1,3,4-oxadiazol-2-yl)pyridin-2-yl)methyl)-N-(3,5-difluorophenyl)ethanesulfonamide], the half-maximal inhibitory concentration (IC50) at human recombinant HDAC1 is 22.3 µM. On human recombinant HDAC6, the “HDAC6 selectivity (fold)” value was 2789 fold and the IC50 was determined as 0.008 µM.

The record behind these values is patent US10538498B2, “1,3,4-oxadiazole sulfonamide derivative compounds as histone deacetylase 6 inhibitor, and the pharmaceutical composition comprising the same” (Chong Kun Dang Pharmaceutical Corp., priority 2015, dated 2020).
